Reference: patent publication US12447153B2, “HER2 mutation inhibitors” (Array BioPharma Inc., priority 2021, dated 2025)

What was measured:
ErbB2 WT = ErbB2 WT (Homo sapiens (Human), UniProt P04626); assay: ErbB Enzyme Assay (HTRF KinEASE-TK), Assay 2; type: biochemical
Procedure: (§1) The kinases were incubated with 250 nM TK-substrate biotin (CisBio, part of cat #62TKOPEC) at 1 mM ATP along with test compounds in a buffer consisting of 25 mM HEPES, pH 7.4, 10 mM MgCl2, 0.01% Triton X-100, and 2% DMSO in a volume of 8 μL. […] After 30-minute incubation at 22° C., the reaction was quenched by adding 8 μL of quench solution containing 62.5 nM Sa-XL665 and 0.25×TK-Ab-Cryptate in HTRF detection buffer (all from CisBio, part of cat #62TKOPEC).

EGFR = EGFR (Homo sapiens (Human), UniProt P00533); assay: ErbB Enzyme Assay (HTRF KinEASE-TK), Assay 3; type: biochemical
Procedure: as §1, with “#62TKOPEC). […] A 4-parameter logistic curve was fit to the POC values as a function of the concentration of compound, and the IC50 value was the point where the best-fit curve crossed 50 POC.” for “#62TKOPEC).”

EGFR wild type (EGFR WT) = EGFR wild type (EGFR WT) (Homo sapiens (Human), UniProt P00533); assay: Cellular Phosphorylation Assay, Assay 5 (EGF-stimulated EGFR phosphorylation, NIH 3T3 cells); type: cell-based
Procedure: (§2) NIH 3T3 cells were engineered to express ErbB2 with Exon 20 YVMA insertion (HER2-YVMA (SEQ ID NO: 2); Assay 4) or EGFR wild type (EGFR WT; Assay 5) with constructs obtained from GenScript and grown in DMEM supplemented with 10% fetal bovine serum and 15 μg/ml blasticidin. […] Serially diluted compounds were added to the plates for 1 hour at 37° C./5% CO2. EGFR WT cells were stimulated with 100 ng/ml rEGF for an additional 10 minutes at 37° C./5% CO2.
(§3) After compound incubation, medium was removed from the cells, which were then fixed in 3.7% formaldehyde in PBS at room temperature for 20 minutes. Following a wash with PBS, cells were permeabilized with 100% methanol at room temperature for 10 minutes. Cells were then washed with PBS/0.05% Tween-20 and blocked with Odyssey blocking buffer (LI-COR Biosciences) for at least 1 hour at room temperature. Antibodies to phosphorylated ErbB2 (Y1196, Cell Signaling #6942) or phosphorylated EGFR (Y1068, Cell Signaling #3777) and GAPDH (Millipore #MAB374) were added to the cells in blocking buffer containing 0.05% azide and incubated overnight at 4° C. After washing with PBS/0.05% Tween-20, the cells were incubated with fluorescently labeled secondary anti-rabbit antibody (LiCOR, IRDye 800CW #926-32211) and anti-mouse antibody (Molecular Probes, Alexa Fluor 680 #A21058) for 1 hour at room temperature in the dark. Cells were then washed and analyzed for fluorescence at both wavelengths using the Odyssey Infrared Imaging System (LI-COR Biosciences). Phosphorylated ErbB2 and EGFR signal was normalized to GAPDH signal to generate curves and calculate IC50 values.

[1] = target: ErbB2 with Exon 20 YVMA insertion (HER2-YVMA) (Homo sapiens (Human), UniProt P04626, INS775YVMA); assay: Cellular Phosphorylation Assay, Assay 4 (constitutive ErbB2 phosphorylation, NIH 3T3 cells); type: cell-based
Procedure: as §2, §3

[2] = EGF-stimulated EGFR WT phosphorylation
[3] = cellular EGFR WT phosphorylation, EGF-stimulated
[4] = cellular ErbB2 YVMA phosphorylation

ErbB2 with Exon 20 YVMA insertion (HER2-YVMA), sequence (P04626 other isoform, or with tags, fused parts or gaps ins YVMA behind 775): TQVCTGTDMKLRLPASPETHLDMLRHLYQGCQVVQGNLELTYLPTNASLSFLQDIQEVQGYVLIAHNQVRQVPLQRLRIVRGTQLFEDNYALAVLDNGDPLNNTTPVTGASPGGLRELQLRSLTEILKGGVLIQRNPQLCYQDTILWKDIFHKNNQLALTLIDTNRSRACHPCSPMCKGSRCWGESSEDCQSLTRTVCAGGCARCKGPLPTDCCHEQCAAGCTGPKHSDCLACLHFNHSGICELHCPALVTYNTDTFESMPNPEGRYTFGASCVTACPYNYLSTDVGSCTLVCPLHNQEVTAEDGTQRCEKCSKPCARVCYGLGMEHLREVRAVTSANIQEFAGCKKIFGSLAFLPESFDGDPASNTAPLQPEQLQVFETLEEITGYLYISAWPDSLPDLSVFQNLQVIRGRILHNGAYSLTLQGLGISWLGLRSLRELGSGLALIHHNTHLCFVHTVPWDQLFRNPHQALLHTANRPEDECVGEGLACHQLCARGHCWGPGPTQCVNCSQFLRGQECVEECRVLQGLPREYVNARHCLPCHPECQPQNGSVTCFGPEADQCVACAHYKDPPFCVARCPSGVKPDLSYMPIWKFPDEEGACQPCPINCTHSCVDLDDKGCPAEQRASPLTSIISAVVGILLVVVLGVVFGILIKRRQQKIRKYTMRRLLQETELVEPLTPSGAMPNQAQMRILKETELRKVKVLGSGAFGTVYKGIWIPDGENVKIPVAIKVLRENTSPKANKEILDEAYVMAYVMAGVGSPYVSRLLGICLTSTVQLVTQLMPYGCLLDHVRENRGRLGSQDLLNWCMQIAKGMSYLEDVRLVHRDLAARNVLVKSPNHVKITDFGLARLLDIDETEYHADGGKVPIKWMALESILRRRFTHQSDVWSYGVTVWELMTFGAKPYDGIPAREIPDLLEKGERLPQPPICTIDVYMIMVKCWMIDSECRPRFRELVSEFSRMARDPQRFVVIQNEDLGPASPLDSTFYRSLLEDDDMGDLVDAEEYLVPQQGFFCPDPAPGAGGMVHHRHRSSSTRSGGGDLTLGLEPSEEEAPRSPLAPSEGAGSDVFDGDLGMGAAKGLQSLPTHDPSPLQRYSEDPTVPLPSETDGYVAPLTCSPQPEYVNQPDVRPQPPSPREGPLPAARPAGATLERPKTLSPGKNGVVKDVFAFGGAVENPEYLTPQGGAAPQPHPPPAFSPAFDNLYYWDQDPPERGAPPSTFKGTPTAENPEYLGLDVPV
ErbB2 WT, sequence (P04626 23-1255): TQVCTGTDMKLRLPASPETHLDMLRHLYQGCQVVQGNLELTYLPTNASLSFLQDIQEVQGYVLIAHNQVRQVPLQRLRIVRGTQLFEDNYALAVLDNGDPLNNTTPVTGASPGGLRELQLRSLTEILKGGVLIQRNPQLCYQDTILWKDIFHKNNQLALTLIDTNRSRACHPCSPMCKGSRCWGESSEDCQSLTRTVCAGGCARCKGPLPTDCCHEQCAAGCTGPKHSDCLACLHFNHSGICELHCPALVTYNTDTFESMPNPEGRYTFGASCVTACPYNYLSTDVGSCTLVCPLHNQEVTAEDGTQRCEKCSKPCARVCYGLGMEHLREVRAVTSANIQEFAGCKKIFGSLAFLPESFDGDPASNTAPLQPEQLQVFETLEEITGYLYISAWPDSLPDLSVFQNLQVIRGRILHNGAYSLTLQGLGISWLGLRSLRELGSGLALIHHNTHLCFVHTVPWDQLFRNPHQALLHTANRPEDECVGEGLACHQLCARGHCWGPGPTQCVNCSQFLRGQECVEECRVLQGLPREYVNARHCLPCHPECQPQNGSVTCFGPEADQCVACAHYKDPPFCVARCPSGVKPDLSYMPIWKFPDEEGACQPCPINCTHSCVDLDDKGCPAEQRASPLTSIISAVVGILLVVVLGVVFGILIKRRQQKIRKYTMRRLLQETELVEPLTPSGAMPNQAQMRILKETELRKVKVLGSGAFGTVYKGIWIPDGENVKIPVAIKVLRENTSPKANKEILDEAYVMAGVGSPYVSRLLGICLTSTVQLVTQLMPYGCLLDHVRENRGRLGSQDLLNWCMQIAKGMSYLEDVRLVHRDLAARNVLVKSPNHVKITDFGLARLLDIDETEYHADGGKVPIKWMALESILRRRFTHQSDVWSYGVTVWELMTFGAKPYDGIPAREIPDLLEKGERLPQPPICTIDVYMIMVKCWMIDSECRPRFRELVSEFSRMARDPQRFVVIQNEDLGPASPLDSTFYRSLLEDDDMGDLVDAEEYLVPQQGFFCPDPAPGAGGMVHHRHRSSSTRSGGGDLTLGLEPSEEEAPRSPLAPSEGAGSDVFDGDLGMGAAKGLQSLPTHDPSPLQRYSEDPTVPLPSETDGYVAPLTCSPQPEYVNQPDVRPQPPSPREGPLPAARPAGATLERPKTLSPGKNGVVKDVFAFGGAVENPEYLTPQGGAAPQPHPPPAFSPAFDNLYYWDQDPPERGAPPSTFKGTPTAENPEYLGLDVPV
EGFR wild type (EGFR WT), sequence (P00533 25-1210): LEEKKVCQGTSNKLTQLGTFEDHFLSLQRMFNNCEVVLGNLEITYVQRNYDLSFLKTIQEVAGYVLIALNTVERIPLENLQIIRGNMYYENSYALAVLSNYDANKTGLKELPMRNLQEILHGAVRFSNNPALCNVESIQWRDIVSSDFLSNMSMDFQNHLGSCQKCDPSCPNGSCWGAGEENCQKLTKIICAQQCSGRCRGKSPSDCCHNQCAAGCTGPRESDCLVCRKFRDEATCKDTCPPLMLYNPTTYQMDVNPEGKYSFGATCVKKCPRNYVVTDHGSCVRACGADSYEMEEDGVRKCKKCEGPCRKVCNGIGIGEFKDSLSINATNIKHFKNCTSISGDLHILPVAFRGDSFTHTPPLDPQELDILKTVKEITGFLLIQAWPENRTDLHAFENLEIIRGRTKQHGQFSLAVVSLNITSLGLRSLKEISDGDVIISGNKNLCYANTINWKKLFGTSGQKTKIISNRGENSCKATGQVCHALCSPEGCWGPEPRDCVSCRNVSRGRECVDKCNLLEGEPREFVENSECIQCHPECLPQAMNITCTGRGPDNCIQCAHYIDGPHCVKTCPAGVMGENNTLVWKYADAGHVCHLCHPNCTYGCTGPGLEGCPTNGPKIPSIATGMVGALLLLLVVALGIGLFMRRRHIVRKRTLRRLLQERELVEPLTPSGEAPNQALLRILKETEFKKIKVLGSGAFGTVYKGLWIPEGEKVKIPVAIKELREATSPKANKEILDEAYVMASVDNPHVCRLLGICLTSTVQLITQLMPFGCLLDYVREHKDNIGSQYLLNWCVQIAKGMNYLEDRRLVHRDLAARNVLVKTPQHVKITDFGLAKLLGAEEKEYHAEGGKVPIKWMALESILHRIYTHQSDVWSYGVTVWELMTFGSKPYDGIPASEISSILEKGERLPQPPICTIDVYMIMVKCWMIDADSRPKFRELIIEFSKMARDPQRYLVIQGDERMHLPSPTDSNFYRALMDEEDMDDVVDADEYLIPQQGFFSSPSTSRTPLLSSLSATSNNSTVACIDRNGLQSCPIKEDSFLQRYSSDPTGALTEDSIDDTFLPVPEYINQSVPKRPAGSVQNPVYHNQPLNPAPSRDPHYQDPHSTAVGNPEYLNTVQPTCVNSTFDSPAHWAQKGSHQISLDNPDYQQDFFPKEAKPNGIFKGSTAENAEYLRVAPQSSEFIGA
EGFR, sequence (P00533 25-1210): as above

Structure (SMILES)	IC50 (ErbB2 WT; ErbB2 WT enzyme) [nM]	IC50 (EGFR; EGFR enzyme) [nM]	IC50 (EGFR wild type (EGFR WT); [2]) [nM]	IC50 ([1]; ErbB2 YVMA phosphorylation) [nM]	IC50 (ErbB2 WT; ErbB2 WT enzyme assay) [nM]	IC50 (EGFR; EGFR enzyme assay) [nM]	IC50 (EGFR wild type (EGFR WT); [3]) [nM]	IC50 [1, 4] [nM]
C=CC(=O)N1CC[C@@H]2[C@H](c3ccc4ncnc(Nc5cc(C)c(Oc6ccc7c(c6)ncn7C)cc5F)c4n3)CC[C@@H]21 (racemic) [Example 134, rac-1-((3aR,4R,6aS)-4-(4-((2-fluoro-5-methyl-4-((1-methyl-1H-benzo[d]imidazol-5-yl)oxy)phenyl)amino)pyrido[3,2-d]pyrimidin-6-yl)hexahydrocyclopenta[b]pyrrol-1(2H)-yl)prop-2-en-1-one]	86.3	≥ 10000	≥ 5000	222				
C=CC(=O)N1CCC[C@@H](c2ccc3ncnc(Nc4cc(C)c(Oc5ccc6c(c5)ncn6C)cc4F)c3n2)CC1 (racemic) [Example 135, rac-(R)-1-(4-(4-((2-fluoro-5-methyl-4-((1-methyl-1H-benzo[d]imidazol-5-yl)oxy)phenyl)amino)pyrido[3,2-d]pyrimidin-6-yl)azepan-1-yl)prop-2-en-1-one]	121	≥ 10000	≥ 5000	44.5				
C=CC(=O)N1CC[C@H](c2ccc3ncnc(Nc4cc(C)c(Oc5ccc6c(c5)ncn6C)cc4F)c3n2)CC(C)(C)C1 (racemic) [Example 139, rac-(R)-1-(5-(4-((2-fluoro-5-methyl-4-((1-methyl-1H-benzo[d]imidazol-5-yl)oxy)phenyl)amino)pyrido[3,2-d]pyrimidin-6-yl)-3,3-dimethylazepan-1-yl)prop-2-en-1-one]	≥ 10000	≥ 10000	≥ 5000	32.5				
C=CC(=O)N1CC[C@@H]2[C@H](c3ccc4ncnc(Nc5ccc(Oc6ccc7c(c6)ncn7C)c(C)c5F)c4n3)CC[C@@H]21 (racemic) [Example 142, rac-1-((3aR,4R,6aS)-4-(4-((2-fluoro-3-methyl-4-((1-methyl-1H-benzo[d]imidazol-5-yl)oxy)phenyl)amino)pyrido[3,2-d]pyrimidin-6-yl)hexahydrocyclopenta[b]pyrrol-1(2H)-yl)prop-2-en-1-one]	49.9	≥ 10000	≥ 5000	79.5				
C=CC(=O)N1CCN(c2ccc3ncnc(Nc4ccc(Oc5ccn6ncnc6c5)c(C)c4F)c3n2)C[C@@H]1C1CC1 (racemic) [Example 163, rac-1-(4-(4-((4-([1,2,4]triazolo[1,5-a]pyridin-7-yloxy)-2-fluoro-3-methylphenyl)amino)pyrido[3,2-d]pyrimidin-6-yl)-2-cyclopropylpiperazin-1-yl)prop-2-en-1-one]	42.3	8790	1510	18.8				
CC#CC(=O)N1CCN(c2ccc3ncnc(Nc4ccc(Oc5ccn6ncnc6c5)c(C)c4F)c3n2)C[C@@H]1C(F)F (racemic) [Example 168, rac-1-(4-(4-((4-([1,2,4]triazolo[1,5-a]pyridin-7-yloxy)-2-fluoro-3-methylphenyl)amino)pyrido[3,2-d]pyrimidin-6-yl)-2-(difluoromethyl)piperazin-1-yl)but-2-yn-1-one]	74.3	1790	356	16.5				
C=CC(=O)N1CC[C@H](c2ccc3ncnc(Nc4ccc(Oc5cnc6c(c5)ncn6C)c(Cl)c4)c3n2)CC1(C)C (racemic) [Example 272]					124	≥ 10000	≥ 5000	76.9
C=CC(=O)N1CCN(c2ccc3ncnc(Nc4ccc(Oc5cc(F)c6c(c5)ncn6C)c(C)c4)c3n2)C[C@@H]1C1CC1 (racemic) [Example 278]					54.6	6630	1820	18.1
C=CC(=O)N1CC[C@H](c2ccc3ncnc(Nc4ccc(Oc5cc(F)c6c(c5)ncn6C)c(C)c4)c3n2)CC1(C)C (racemic) [Example 279]					145	≥ 10000	≥ 5000	62.1
C=CC(=O)N1C[C@H](c2ccc3ncnc(Nc4ccc(Oc5ccn6ncnc6c5)c(C)c4F)c3n2)CC1(C)C (racemic) [Example 296]					58.5	881	1440	36.1
C=CC(=O)N1CCN(c2ccc3ncnc(Nc4ccc(Oc5ccn6ncnc6c5)c(C)c4F)c3n2)C[C@@H]1C(F)F (racemic) [Example 297]					11.4	168	239	12.8
C=CC(=O)N1CCN(c2ccc3ncnc(Nc4ccc(Oc5ccn6ncnc6c5)c(Cl)c4F)c3n2)C[C@@H]1C(F)F (racemic) [Example 299]					1.2	29.4	66.2	4.1
CCC(=O)N1CC([C@H](C)c2ccc3ncnc(Nc4ccc(Oc5ccn6ncnc6c5)c(C)c4F)c3n2)C1 (racemic) [Example 301]					94.8	2250	2550	51.1
C=CC(=O)N1CCN(c2ccc3ncnc(Nc4ccc(Oc5ccn6ncnc6c5)c(C)c4F)c3n2)C[C@@H]1C1CCC1 (racemic) [Example 305]					127	7970	≥ 5000	66.1
C=CC(=O)N1CCN(c2ccc3ncnc(Nc4cc(C)c(Oc5ccn6ncnc6c5)cc4F)c3n2)C[C@@H]1C(F)F (racemic) [Example 312]					23.8	892	312	13.4
C=CC(=O)N1[C@@H](C)CC(c2ccc3ncnc(Nc4ccc(Oc5ccc6c(c5)ncn6C)c(C)c4F)c3n2)C[C@@H]1C (mixture of isomers) [Example 313]					79.7	≥ 10000	≥ 5000	51.9
C=CC(=O)N1CC[C@H](c2ccc3ncnc(Nc4ccc(Oc5ccn6ncnc6c5)c(C)c4F)c3n2)CC1(C)C (racemic) [Example 314]					59.4	5550	≥ 5000	124
C=CC(=O)N1CCCC[C@@H](c2ccc3ncnc(Nc4ccc(Oc5ccc6c(c5)ncn6C)c(C)c4)c3n2)C1 (single isomer, unassigned) [Example 171]	13.4	≥ 10000	≥ 5000	26.3				
C=CC(=O)N1CCCC[C@H](c2ccc3ncnc(Nc4ccc(Oc5ccc6c(c5)ncn6C)c(C)c4)c3n2)C1 (single isomer, unassigned) [Example 172]	5.2	720	1960	13.9				
C=CC(=O)N1CC[C@H](c2ccc3ncnc(Nc4ccc(Oc5ccn6ncnc6c5)c(C)c4F)c3n2)CC12CC2 (single isomer, unassigned) [Example 174]	23.8	736	270	7.9				
C=CC(=O)N1CCC[C@@H](c2ccc3ncnc(Nc4ccc(Oc5ccn6ncnc6c5)c(C)c4F)c3n2)CC1 (single isomer, unassigned) [Example 209]	16.4	872	503	20.1				
C=CC(=O)N1CCC[C@@H](c2ccc3ncnc(Nc4ccc(Oc5ccn6ncnc6c5)c(C)c4F)c3n2)CC1 (single isomer, unassigned) [Example 210]	10.7	1610	≥ 5000	67.7				
CC#CC(=O)N1CCC[C@@H](c2ccc3ncnc(Nc4ccc(Oc5ccn6ncnc6c5)c(C)c4F)c3n2)CC1 (single isomer, unassigned) [Example 211]	65.4	5400	≥ 5000	317				
CC#CC(=O)N1CCC[C@@H](c2ccc3ncnc(Nc4ccc(Oc5ccn6ncnc6c5)c(C)c4F)c3n2)CC1 (single isomer, unassigned) [Example 212]	66.2	3380	≥ 5000	386				
